# Experimental data taken from the supplement of paper PMC10307832.
# Columns and labels:
# kb NB 142-70 = compound: C1CSC2=C(C(=O)N1)SC3=C2C=C(C=C3)O [kb NB 142-70]; assay: relative viability (nuclei count vs DMSO), 5 days (fraction); higher = more cells survive
# Summary of the method: (§1)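 Lung cancer cell lines in 1536-well plates were kept overnight at 37 °C, then pinned with five library-drug doses (not always all listed) spaced by √10 on vehicle-anchored plates. After 5 days without medium change, cells were fixed, permeabilised and Hoechst-stained in one step, imaged at 4×, and nuclei were counted with MetaXpress. Viability is treated-well nuclei divided by vehicle-well nuclei, taken as the median over plates. Plates passed only with control CV below 25% and at least one doubling.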
# [1] = compound: NCC(=O)Nc1ccc(-n2nc(C(F)(F)F)cc2-c2ccc3c(ccc4ccccc43)c2)cc1; assay: as above
# Summary of the method: as §1
Cell Line,relative viability (kb NB 142-70; 0.1 µM),relative viability (kb NB 142-70; 1 µM),relative viability (kb NB 142-70; 3.162 µM),relative viability ([1]; 0.02 µM),relative viability ([1]; 0.06325 µM),relative viability ([1]; 0.2 µM),relative viability ([1]; 0.6325 µM),relative viability ([1]; 2 µM)
NCI-H661,0.969,0.934,0.919,1.03,0.96,0.973,0.963,1.02
NCI-H727,1.09,1.13,1.02,0.858,1.16,1.02,0.922,1.09
NCI-H838,0.965,0.961,0.963,0.958,0.998,1,0.909,0.864
NCI-H1299,0.977,1.06,1.1,0.993,0.982,1.02,0.992,1
NCI-H1355,1.02,0.885,1.01,0.971,1.07,0.883,1.02,0.995
NCI-H1395,1.01,0.963,0.601,0.941,0.983,0.755,0.858,1
NCI-H1437,0.986,1,0.975,0.975,1.05,0.957,1.01,0.946
NCI-H1563,1.04,1.02,1,0.992,0.954,0.997,1.02,0.968
NCI-H1623,0.98,1.01,0.951,1.05,1.02,0.943,0.923,1.01
NCI-H1648,0.789,0.925,0.748,0.751,0.939,0.9,0.989,1.11
NCI-H1650,0.988,1.02,0.849,0.913,0.995,0.847,0.971,1.09
NCI-H1651,1.02,0.975,0.821,1,0.947,0.978,0.956,0.998
NCI-H1666,0.951,1.01,0.922,1.05,0.986,1.01,0.961,0.987
NCI-H1703,0.959,0.973,1.23,1.01,0.816,0.972,0.889,0.812
NCI-H1734,1.04,0.774,0.517,0.931,1.06,0.955,0.966,0.928
NCI-H1755,0.988,0.986,1.02,1.01,1.03,1.04,0.966,0.986
NCI-H1792,0.928,0.937,0.915,1.05,0.812,0.875,0.95,0.911
NCI-H1793,0.911,1.11,0.863,0.984,1.08,0.86,0.915,1.08
NCI-H1915,1.04,0.978,0.742,0.86,1.02,0.978,0.963,0.989
NCI-H1944,1.08,0.978,1.07,0.822,0.973,0.966,0.965,0.899

Cell Line,relative viability (kb NB 142-70; 0.1 µM),relative viability (kb NB 142-70; 1 µM),relative viability (kb NB 142-70; 3.162 µM),relative viability ([1]; 0.02 µM),relative viability ([1]; 0.06325 µM),relative viability ([1]; 0.2 µM),relative viability ([1]; 0.6325 µM),relative viability ([1]; 2 µM)
NCI-H1975,0.902,0.982,0.656,0.91,0.887,1.03,0.972,1.03
NCI-H1993,1.03,0.857,0.716,0.934,1.1,1.05,1,1.04
NCI-H2009,1.06,1.07,0.788,0.952,1.02,1.07,1,1.05
NCI-H2023,1.07,0.946,0.642,0.952,1.06,0.957,1.06,0.922
NCI-H2085,0.964,0.952,0.712,0.961,1.01,1.03,0.982,1.01
NCI-H2087,1.04,1.29,0.951,0.978,1.09,1.1,1.08,1.02
NCI-H2126,0.985,0.974,0.989,0.981,1.04,1.04,0.993,0.997
NCI-H2170,0.965,1.02,0.825,0.985,0.974,0.967,0.949,0.997
NCI-H2228,1.04,1.33,0.699,1,1.04,1.1,1.03,0.797
NCI-H2342,0.897,0.972,0.912,0.93,1.01,0.988,0.986,0.911
NCI-H2347,1.05,1.02,0.949,0.99,1.06,1.16,1.11,1.07
NCI-H2405,0.985,0.995,0.7,1,1.02,1.09,0.961,1.06
NCI-H3122,0.962,0.982,0.969,1.01,1.02,1.01,1.01,1
PC-3 [JPC-3],1,1.07,1.05,0.996,1.08,1.01,1.02,1.14
PC-14,0.958,0.973,0.954,1.05,1.06,0.954,0.964,1.02
RERF-LC-KJ,0.988,1.04,0.921,1.05,1.01,0.993,1.01,1
SK-LU-1,0.994,0.982,0.664,0.949,1.1,1.2,1.01,1.07
SK-MES-1,1.01,1.13,0.734,1.04,1.01,1.06,1.01,1.03
SW 900,0.864,1.02,0.744,0.717,0.941,0.856,0.784,0.814
SW 1573,1.02,0.84,0.535,0.94,1.01,1.03,0.971,0.877
